Assay results from the supplement of paper PMC10307832.

Experiments:
Experiment in all cases: relative viability (nuclei count vs DMSO), 5 days (fraction); higher = more cells survive
LOU-NH91 = test system: LOU-NH91
Method in brief: (§1)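 Lung cancer cell lines were seeded in 1536-well plates and dosed by pin tool the next day, with either a single drug or a fixed anchor-drug dose combined with five library-drug doses (not always all listed) spaced in √10 steps. Five days later, one step fixed the cells and stained their nuclei (final 0.05% Triton X-100, 1% formaldehyde, 1 ug/ml Hoechst), and nuclei were counted on 4× images. Relative viability is the nuclei count in treated wells divided by the count in vehicle wells, and each value is the median of duplicate plates.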

NCI-H1648 = test system: NCI-H1648
Method in brief: as §1

NCI-H2009 = test system: NCI-H2009
Method in brief: as §1

NCI-H2405 = test system: NCI-H2405
Method in brief: as §1

NCI-H647 = test system: NCI-H647
Method in brief: as §1

A549 = test system: A549
Method in brief: as §1

Calu-6 = test system: Calu-6
Method in brief: as §1

EBC-1 = test system: EBC-1
Method in brief: as §1

IA-LM = test system: IA-LM
Method in brief: as §1

NCI-H1299 = test system: NCI-H1299
Method in brief: as §1

NCI-H1703 = test system: NCI-H1703
Method in brief: as §1

CCNC(=O)c1noc(-c2cc(C(C)C)c(O)cc2O)c1-c1ccc(CN2CCOCC2)cc1 [Luminespib] + CC(=O)Nc1cccc(-n2c(=O)n(C3CC3)c(=O)c3c(Nc4ccc(I)cc4F)n(C)c(=O)c(C)c32)c1 [Trametinib] (partner 0.02 µM)
relative viability (LOU-NH91; first compound 0.002 µM): 0.807
relative viability (LOU-NH91; first compound 0.006325 µM): 0.775
relative viability (LOU-NH91; first compound 0.02 µM): 0.6
relative viability (LOU-NH91; first compound 0.06325 µM): 0.417
relative viability (LOU-NH91; first compound 0.2 µM): 0.385
relative viability (NCI-H1648; first compound 0.002 µM): 0.395
relative viability (NCI-H1648; first compound 0.006325 µM): 0.492
relative viability (NCI-H1648; first compound 0.02 µM): 0.513
relative viability (NCI-H1648; first compound 0.06325 µM): 0.407
relative viability (NCI-H1648; first compound 0.2 µM): 0.278
relative viability (NCI-H2009; first compound 0.002 µM): 0.271
relative viability (NCI-H2009; first compound 0.006325 µM): 0.225
relative viability (NCI-H2009; first compound 0.02 µM): 0.169
relative viability (NCI-H2009; first compound 0.06325 µM): 0.0625
relative viability (NCI-H2009; first compound 0.2 µM): 0.0698
relative viability (NCI-H2405; first compound 0.002 µM): 0.669
relative viability (NCI-H2405; first compound 0.02 µM): 0.515
relative viability (NCI-H2405; first compound 0.06325 µM): 0.252
relative viability (NCI-H2405; first compound 0.2 µM): 0.202
relative viability (NCI-H647; first compound 0.002 µM): 0.507
relative viability (NCI-H647; first compound 0.006325 µM): 0.508
relative viability (NCI-H647; first compound 0.02 µM): 0.195
relative viability (NCI-H647; first compound 0.06325 µM): 0.0973
relative viability (NCI-H647; first compound 0.2 µM): 0.0815

CCNC(=O)c1noc(-c2cc(C(C)C)c(O)cc2O)c1-c1ccc(CN2CCOCC2)cc1 [Luminespib] + CS(=O)(=O)CCNCc1ccc(-c2ccc3ncnc(Nc4ccc(OCc5cccc(F)c5)c(Cl)c4)c3c2)o1 [Lapatinib] (partner 2 µM)
relative viability (A549; first compound 0.002 µM): 0.983
relative viability (A549; first compound 0.006325 µM): 0.903
relative viability (A549; first compound 0.02 µM): 0.897
relative viability (A549; first compound 0.06325 µM): 0.627
relative viability (A549; first compound 0.2 µM): 0.0491
relative viability (Calu-6; first compound 0.002 µM): 1.11
relative viability (Calu-6; first compound 0.006325 µM): 0.962
relative viability (Calu-6; first compound 0.02 µM): 1.38
relative viability (Calu-6; first compound 0.06325 µM): 0.166
relative viability (Calu-6; first compound 0.2 µM): 0.119
relative viability (EBC-1; first compound 0.002 µM): 0.204
relative viability (EBC-1; first compound 0.006325 µM): 0.223
relative viability (EBC-1; first compound 0.02 µM): 0.233
relative viability (EBC-1; first compound 0.06325 µM): 0.187
relative viability (EBC-1; first compound 0.2 µM): 0.194
relative viability (IA-LM; first compound 0.002 µM): 0.929
relative viability (IA-LM; first compound 0.006325 µM): 0.935
relative viability (IA-LM; first compound 0.02 µM): 0.643
relative viability (IA-LM; first compound 0.06325 µM): 0.0552
relative viability (IA-LM; first compound 0.2 µM): 0.066
relative viability (LOU-NH91; first compound 0.002 µM): 0.791
relative viability (LOU-NH91; first compound 0.006325 µM): 0.833
relative viability (LOU-NH91; first compound 0.02 µM): 0.588
relative viability (LOU-NH91; first compound 0.06325 µM): 0.338
relative viability (LOU-NH91; first compound 0.2 µM): 0.342
relative viability (NCI-H1299; first compound 0.002 µM): 1.04
relative viability (NCI-H1299; first compound 0.006325 µM): 0.965
relative viability (NCI-H1299; first compound 0.02 µM): 0.989
relative viability (NCI-H1299; first compound 0.06325 µM): 0.892
relative viability (NCI-H1299; first compound 0.2 µM): 0.219
relative viability (NCI-H1703; first compound 0.002 µM): 1.14
relative viability (NCI-H1703; first compound 0.006325 µM): 1.07
relative viability (NCI-H1703; first compound 0.02 µM): 0.998
relative viability (NCI-H1703; first compound 0.06325 µM): 0.158
relative viability (NCI-H1703; first compound 0.2 µM): 0.16
relative viability (NCI-H2009; first compound 0.002 µM): 1.22
relative viability (NCI-H2009; first compound 0.006325 µM): 0.814
relative viability (NCI-H2009; first compound 0.02 µM): 0.63
relative viability (NCI-H2009; first compound 0.06325 µM): 0.0682
relative viability (NCI-H2009; first compound 0.2 µM): 0.0655
relative viability (NCI-H2405; first compound 0.002 µM): 1.17
relative viability (NCI-H2405; first compound 0.006325 µM): 0.876
relative viability (NCI-H2405; first compound 0.02 µM): 0.869
relative viability (NCI-H2405; first compound 0.06325 µM): 0.144
relative viability (NCI-H2405; first compound 0.2 µM): 0.125
relative viability (NCI-H647; first compound 0.002 µM): 1.2
relative viability (NCI-H647; first compound 0.006325 µM): 1.16
relative viability (NCI-H647; first compound 0.02 µM): 0.359
relative viability (NCI-H647; first compound 0.06325 µM): 0.0578
relative viability (NCI-H647; first compound 0.2 µM): 0.0724

Cc1csc(=NC2CCCCC2)n1/N=C/c1ccc(O)c(O)c1O [MIM1] + CC(=O)Nc1cccc(-n2c(=O)n(C3CC3)c(=O)c3c(Nc4ccc(I)cc4F)n(C)c(=O)c(C)c32)c1 [Trametinib] (partner 0.02 µM)
relative viability (LOU-NH91; first compound 0.2 µM): 0.795
relative viability (LOU-NH91; first compound 0.6325 µM): 0.839
relative viability (LOU-NH91; first compound 2 µM): 0.646
relative viability (LOU-NH91; first compound 6.325 µM): 0.7
relative viability (LOU-NH91; first compound 20 µM): 0.349
relative viability (NCI-H1648; first compound 0.2 µM): 0.419
relative viability (NCI-H1648; first compound 0.6325 µM): 0.439
relative viability (NCI-H1648; first compound 2 µM): 0.619
relative viability (NCI-H1648; first compound 6.325 µM): 0.499
relative viability (NCI-H1648; first compound 20 µM): 0.267
relative viability (NCI-H2009; first compound 0.2 µM): 0.257
relative viability (NCI-H2009; first compound 0.6325 µM): 0.261
relative viability (NCI-H2009; first compound 2 µM): 0.27
relative viability (NCI-H2009; first compound 6.325 µM): 0.208
relative viability (NCI-H2009; first compound 20 µM): 0.329
relative viability (NCI-H2405; first compound 0.2 µM): 0.586
relative viability (NCI-H2405; first compound 0.6325 µM): 0.75
relative viability (NCI-H2405; first compound 2 µM): 0.656
relative viability (NCI-H2405; first compound 6.325 µM): 0.603
relative viability (NCI-H2405; first compound 20 µM): 0.685
relative viability (NCI-H647; first compound 0.2 µM): 0.435
relative viability (NCI-H647; first compound 0.6325 µM): 0.567
relative viability (NCI-H647; first compound 2 µM): 0.415
relative viability (NCI-H647; first compound 6.325 µM): 0.413
relative viability (NCI-H647; first compound 20 µM): 0.18
